ChEMBL document CHEMBL1151757, “Synthesis, radiosynthesis, and biological evaluation of fluorine-18-labeled 2beta-carbo(fluoroalkoxy)-3beta-(3'-((Z)-2-haloethenyl)phenyl)nortropanes: candidate radioligands for in vivo imaging of the serotonin transporter with positron emission tomography” (J Med Chem, 2008)

Tested on: not listed separately
Test: Ratio of drug uptake in occipital lobe to cerebellum in anesthetized cynomolgus monkey after 95 mins postinjection
Type: ADME, organism-based, Macaca fascicularis
Settings: in vivo

SMILES | Ratio
O=C(OCC[18F])C1C2CCC(CC1c1cccc(/C=C\Br)c1)N2 (centres undefined) | 1

Tested on: Caudate
Test: Drug uptake in anesthetized cynomolgus monkey brain caudate after 12.5 mins postinjection
Type: ADME, organism-based, Macaca fascicularis, Caudate nucleus
Settings: in vivo

SMILES | Drug uptake
O=C(OCC[18F])C1C2CCC(CC1c1cccc(/C=C\Br)c1)N2 (centres undefined) | 2.61

Tested on: Pons
Test: Drug uptake in anesthetized cynomolgus monkey brain pons after 0.5 mins postinjection
Type: ADME, organism-based, Macaca fascicularis
Settings: in vivo

SMILES | Drug uptake
O=C(OCC[18F])C1C2CCC(CC1c1cccc(/C=C\Br)c1)N2 (centres undefined) | 0.01

Tested on: Putamen
Test: Drug uptake in anesthetized cynomolgus monkey brain putamen after 155 mins postinjection
Type: ADME, organism-based, Macaca fascicularis
Settings: in vivo

SMILES | Drug uptake
O=C(OCC[18F])C1C2CCC(CC1c1cccc(/C=C\Br)c1)N2 (centres undefined) | 4.01

Tested on: Thalamus
Test: Drug uptake in anesthetized cynomolgus monkey brain thalamus after 125 mins postinjection
Type: ADME, organism-based, Macaca fascicularis
Set-up: unit not given here
Settings: in vivo

SMILES | Drug uptake
O=C(OCC[18F])C1C2CCC(CC1c1cccc(/C=C\Br)c1)N2 (centres undefined) | 4.15

Tested on: not listed separately
Test: Ratio of drug uptake in medulla to cerebellum in anesthetized cynomolgus monkey after 1.5 mins postinjection
Type: ADME, organism-based, Macaca fascicularis
Settings: in vivo, 0.025 h

SMILES | Ratio
O=C(OCC[18F])C1C2CCC(CC1c1cccc(/C=C\Br)c1)N2 (centres undefined) | 1.3

Tested on: Caudate
Test: Drug uptake in anesthetized cynomolgus monkey brain caudate after 225 mins postinjection
Type: ADME, organism-based, Macaca fascicularis, Caudate nucleus
Settings: in vivo, 3.75 h

SMILES | Drug uptake
O=C(OCC[18F])C1C2CCC(CC1c1cccc(/C=C\Br)c1)N2 (centres undefined) | 2.93

Tested on: Caudate
Test: Drug uptake in anesthetized cynomolgus monkey brain caudate after 75 mins postinjection
Type: ADME, organism-based, Macaca fascicularis, Caudate nucleus
Settings: in vivo, 1.25 h

SMILES | Drug uptake
O=C(OCC[18F])C1C2CCC(CC1c1cccc(/C=C\Br)c1)N2 (centres undefined) | 3.94

Tested on: not listed separately
Test: Ratio of drug uptake in medulla to cerebellum in anesthetized cynomolgus monkey after 9.5 mins postinjection
Type: ADME, organism-based, Macaca fascicularis
Settings: in vivo

SMILES | Ratio
O=C(OCC[18F])C1C2CCC(CC1c1cccc(/C=C\Br)c1)N2 (centres undefined) | 1.2

Tested on: not listed separately
Test: Ratio of drug uptake in pons to cerebellum in anesthetized cynomolgus monkey after 175 mins postinjection
Type: ADME, organism-based, Macaca fascicularis
Settings: in vivo

SMILES | Ratio
O=C(OCC[18F])C1C2CCC(CC1c1cccc(/C=C\Br)c1)N2 (centres undefined) | 1.8

Tested on: not listed separately
Test: Drug uptake in anesthetized cynomolgus monkey brain occipital lobe after 35 mins postinjection
Type: ADME, organism-based, Macaca fascicularis
Settings: in vivo

SMILES | Drug uptake
O=C(OCC[18F])C1C2CCC(CC1c1cccc(/C=C\Br)c1)N2 (centres undefined) | 3.43

Tested on: not listed separately
Test: Drug uptake in anesthetized cynomolgus monkey brain frontal lobe after 1.5 mins postinjection
Type: ADME, organism-based, Macaca fascicularis
Settings: in vivo, 0.025 h

SMILES | Drug uptake
O=C(OCC[18F])C1C2CCC(CC1c1cccc(/C=C\Br)c1)N2 (centres undefined) | 0.04

Tested on: Caudate
Test: Drug uptake in anesthetized cynomolgus monkey brain caudate after 45 mins postinjection
Type: ADME, organism-based, Macaca fascicularis, Caudate nucleus
Settings: in vivo, 0.75 h

SMILES | Drug uptake
O=C(OCC[18F])C1C2CCC(CC1c1cccc(/C=C\Br)c1)N2 (centres undefined) | 3.83

Tested on: not listed separately
Test: Ratio of drug uptake in midbrain to cerebellum in anesthetized cynomolgus monkey after 135 mins postinjection
Type: ADME, organism-based, Macaca fascicularis
Settings: in vivo, 2.25 h

SMILES | Ratio
O=C(OCC[18F])C1C2CCC(CC1c1cccc(/C=C\Br)c1)N2 (centres undefined) | 1.9

Tested on: not listed separately
Test: Ratio of drug uptake in putamen to cerebellum in anesthetized cynomolgus monkey after 75 mins postinjection
Type: ADME, organism-based, Macaca fascicularis
Settings: in vivo, 1.25 h

SMILES | Ratio
O=C(OCC[18F])C1C2CCC(CC1c1cccc(/C=C\Br)c1)N2 (centres undefined) | 1.5

Tested on: not listed separately
Test: Drug uptake in anesthetized cynomolgus monkey brain occipital lobe after 2.5 mins postinjection
Type: ADME, organism-based, Macaca fascicularis
Settings: in vivo

SMILES | Drug uptake
O=C(OCC[18F])C1C2CCC(CC1c1cccc(/C=C\Br)c1)N2 (centres undefined) | 0.36

Tested on: Pons
Test: Drug uptake in anesthetized cynomolgus monkey brain pons after 65 mins postinjection
Type: ADME, organism-based, Macaca fascicularis
Settings: in vivo

SMILES | Drug uptake
O=C(OCC[18F])C1C2CCC(CC1c1cccc(/C=C\Br)c1)N2 (centres undefined) | 4.56

Tested on: not listed separately
Test: Drug uptake in anesthetized cynomolgus monkey brain cerebellum after 35 mins postinjection
Type: ADME, organism-based, Macaca fascicularis
Settings: in vivo

SMILES | Drug uptake
O=C(OCC[18F])C1C2CCC(CC1c1cccc(/C=C\Br)c1)N2 (centres undefined) | 3.84

Tested on: Midbrain
Test: Drug uptake in anesthetized cynomolgus monkey brain midbrain after 65 mins postinjection
Type: ADME, organism-based, Macaca fascicularis
Set-up: unit not given here
Settings: in vivo

SMILES | Drug uptake
O=C(OCC[18F])C1C2CCC(CC1c1cccc(/C=C\Br)c1)N2 (centres undefined) | 5

Tested on: not listed separately
Test: Drug uptake in anesthetized cynomolgus monkey brain cerebellum after 235 mins postinjection
Type: ADME, organism-based, Macaca fascicularis
Settings: in vivo

SMILES | Drug uptake
O=C(OCC[18F])C1C2CCC(CC1c1cccc(/C=C\Br)c1)N2 (centres undefined) | 1.62

Tested on: Medulla
Test: Drug uptake in anesthetized cynomolgus monkey brain medulla after 185 mins postinjection
Type: ADME, organism-based, Macaca fascicularis
Settings: in vivo

SMILES | Drug uptake
O=C(OCC[18F])C1C2CCC(CC1c1cccc(/C=C\Br)c1)N2 (centres undefined) | 3.61

Tested on: not listed separately
Test: Ratio of drug uptake in occipital lobe to cerebellum in anesthetized cynomolgus monkey after 105 mins postinjection
Type: ADME, organism-based, Macaca fascicularis
Settings: in vivo, 1.75 h

SMILES | Ratio
O=C(OCC[18F])C1C2CCC(CC1c1cccc(/C=C\Br)c1)N2 (centres undefined) | 1.1

Tested on: Midbrain
Test: Drug uptake in anesthetized cynomolgus monkey brain midbrain after 235 mins postinjection
Type: ADME, organism-based, Macaca fascicularis
Settings: in vivo

SMILES | Drug uptake
O=C(OCC[18F])C1C2CCC(CC1c1cccc(/C=C\Br)c1)N2 (centres undefined) | 3.76

Tested on: Putamen
Test: Drug uptake in anesthetized cynomolgus monkey brain putamen after 9.5 mins postinjection
Type: ADME, organism-based, Macaca fascicularis
Set-up: unit not given here
Settings: in vivo

SMILES | Drug uptake
O=C(OCC[18F])C1C2CCC(CC1c1cccc(/C=C\Br)c1)N2 (centres undefined) | 3.59

Tested on: Pons
Test: Drug uptake in anesthetized cynomolgus monkey brain pons after 85 mins postinjection
Type: ADME, organism-based, Macaca fascicularis
Settings: in vivo

SMILES | Drug uptake
O=C(OCC[18F])C1C2CCC(CC1c1cccc(/C=C\Br)c1)N2 (centres undefined) | 4.29

Tested on: Thalamus
Test: Drug uptake in anesthetized cynomolgus monkey brain thalamus after 145 mins postinjection
Type: ADME, organism-based, Macaca fascicularis
Set-up: unit not given here
Settings: in vivo

SMILES | Drug uptake
O=C(OCC[18F])C1C2CCC(CC1c1cccc(/C=C\Br)c1)N2 (centres undefined) | 3.86

Tested on: not listed separately
Test: Drug uptake in anesthetized cynomolgus monkey brain cerebellum after 135 mins postinjection
Type: ADME, organism-based, Macaca fascicularis
Settings: in vivo, 2.25 h

SMILES | Drug uptake
O=C(OCC[18F])C1C2CCC(CC1c1cccc(/C=C\Br)c1)N2 (centres undefined) | 2.43

Tested on: not listed separately
Test: Ratio of drug uptake in midbrain to cerebellum in anesthetized cynomolgus monkey after 185 mins postinjection
Type: ADME, organism-based, Macaca fascicularis
Settings: in vivo

SMILES | Ratio
O=C(OCC[18F])C1C2CCC(CC1c1cccc(/C=C\Br)c1)N2 (centres undefined) | 2.2

Tested on: Thalamus
Test: Drug uptake in anesthetized cynomolgus monkey brain thalamus after 195 mins postinjection
Type: ADME, organism-based, Macaca fascicularis
Settings: in vivo, 3.25 h

SMILES | Drug uptake
O=C(OCC[18F])C1C2CCC(CC1c1cccc(/C=C\Br)c1)N2 (centres undefined) | 3.18

Tested on: Midbrain
Test: Drug uptake in anesthetized cynomolgus monkey brain midbrain after 135 mins postinjection
Type: ADME, organism-based, Macaca fascicularis
Settings: in vivo, 2.25 h

SMILES | Drug uptake
O=C(OCC[18F])C1C2CCC(CC1c1cccc(/C=C\Br)c1)N2 (centres undefined) | 4.67

Tested on: Putamen
Test: Drug uptake in anesthetized cynomolgus monkey brain putamen after 27.5 mins postinjection
Type: ADME, organism-based, Macaca fascicularis
Set-up: unit not given here
Settings: in vivo

SMILES | Drug uptake
O=C(OCC[18F])C1C2CCC(CC1c1cccc(/C=C\Br)c1)N2 (centres undefined) | 4.67

Tested on: not listed separately
Test: Drug uptake in anesthetized cynomolgus monkey brain frontal lobe after 125 mins postinjection
Type: ADME, organism-based, Macaca fascicularis
Settings: in vivo

SMILES | Drug uptake
O=C(OCC[18F])C1C2CCC(CC1c1cccc(/C=C\Br)c1)N2 (centres undefined) | 2.69

Tested on: not listed separately
Test: Ratio of drug uptake in pons to cerebellum in anesthetized cynomolgus monkey after 105 mins postinjection
Type: ADME, organism-based, Macaca fascicularis
Settings: in vivo, 1.75 h

SMILES | Ratio
O=C(OCC[18F])C1C2CCC(CC1c1cccc(/C=C\Br)c1)N2 (centres undefined) | 1.5

Tested on: Putamen
Test: Drug uptake in anesthetized cynomolgus monkey brain putamen after 165 mins postinjection
Type: ADME, organism-based, Macaca fascicularis
Settings: in vivo, 2.75 h

SMILES | Drug uptake
O=C(OCC[18F])C1C2CCC(CC1c1cccc(/C=C\Br)c1)N2 (centres undefined) | 3.92
